From PubChem BioAssay AID2305 (GlaxoSmithKline (GSK), 2010)

system: P. falciparum 3D7 growth, pLDH absorbance; assay: P. falciparum 3D7 growth inhibition, dose response, strain 3D7 (AID 2305)

Point of comparison: `O=C(Nc1ccc(-c2ccccc2)cc1)Nc1cccc(Cn2ncc(N3CCCNCC3)c(Cl)c2=O)c1`, IC50 220 nM. Against it:
- Cc1cc(NN=Cc2ccccc2[N+](=O)[O-])c2cccc(C)c2n1 — 2.5-fold higher, 550 nM
- N#Cc1ccc(-c2ccc(C(=O)NCCCCN3CCC(c4cc(Br)c5c(c4OCC(N)=O)CCCC5)CC3)cc2)cc1 — 3.6-fold higher, 800 nM
- CC1CN(CC(O)Cn2c3ccc(Br)cc3c3cc(Br)ccc32)CC(C)O1 (stereo not given) — 3.5-fold higher, 780 nM
- Cc1nc(-c2nc(NCc3ccncc3)ncc2-c2ccsc2)sc1C — 4.5-fold higher, 990 nM
- O=C(NCCCCN1CCC(O)(c2ccc(Cl)cc2)CC1)c1ccc(Br)cc1 — 5.7-fold higher, 1250 nM
- O=C(NC1CC1)c1ccc(N2CCCC(COc3ccc4c(c3)CCCC4)C2)nc1 (stereo not given) — 4.9-fold higher, 1080 nM
- CN1CCC(Oc2cc(CN3CC[C@H](NC(=O)c4ccc(Cl)c(Cl)c4)C3)ccc2I)C1 (stereo not given in full) — 3.8-fold higher, 840 nM
- NC1=NC(c2ccccc2)(c2ccccc2)C(=O)N1CCCCc1ccccn1 — 5.7-fold higher, 1260 nM
- CC(C)(C)CCOC(=O)N1CCc2c(cc(O)c(O)c2Cl)C(c2ccc(O)cc2)C1 (stereo not given) — 3.4-fold higher, 750 nM
- O=C(NC1CCN(CCC[C@]2(c3ccc(Cl)c(Cl)c3)CCCN(C(=O)c3ccccc3)C2)CC1)c1ccc(Cl)cc1 — 4.1-fold higher, 900 nM
- Cc1ccccc1CNc1ccc2nc(N)nc(N)c2c1 — within 1.5-fold, 170 nM
- CCc1nc(N)nc(N)c1-c1ccc(F)c(F)c1 — 1.9-fold higher, 420 nM
- COc1cc(Nc2nccc(N3CCC(NC(=O)c4cccc(C#N)c4)C3)n2)cc(OC)c1OC (stereo not given) — 4.5-fold higher, 990 nM
- Cc1cc(C(=O)Nc2ccc(-c3ccccc3)cc2)no1 — 3.1-fold higher, 690 nM
- O=C(Nc1cccc(CN2CCCN(Cc3cccc(O)c3)CC2)c1)c1ccc2ccccc2c1 — 3.6-fold higher, 790 nM
- COc1ccccc1/C=C/C(=O)NCCC1CCN(CCCCCNC(=O)/C=C/c2ccc(Cl)c(Cl)c2)CC1 — 3.7-fold higher, 810 nM
- O=C(C1CCCC1)N1CCOC(CCN2CCC(c3ccccc3)CC2)(c2ccc(Cl)c(Cl)c2)C1 (stereo not given) — 4.3-fold higher, 940 nM
- CCCCCCCCn1c2c(c(=N)c3c1CCC3)CCCC2 — 2-fold lower, 110 nM
- Nc1ncc(Cc2ccc3c(ccc4ccccc43)c2)c(N)n1 — 3.5-fold higher, 760 nM
- N#Cc1ccc2c(c1)CCN(CCC1CCC(NC(=O)/C=C/c3cccc4ccccc34)CC1)CC2 (stereo not given) — 3.3-fold higher, 730 nM
- O=C(Nc1ccc(-c2nc3ccccc3[nH]2)cc1)c1cccc(S(=O)(=O)N2CCOCC2)c1 — 4.1-fold higher, 900 nM
- CC(C)CN(C)Cc1ccc(-c2ccc(-c3nc4ccccc4[nH]3)s2)cc1 — 3.4-fold higher, 750 nM
- Cc1cccc2[nH]c(-c3ccc(-c4ccc(CN5CC(C)OC(C)C5)cc4)cc3)nc12 (stereo not given) — 2.4-fold higher, 520 nM
- CCNc1cc(C(=O)N[C@@H](Cc2cccc(Cl)c2)[C@H](O)CNC(C)CCCC(C)C)cc(N2CCCCS2(=O)=O)c1 (stereo not given in full) — within 1.5-fold, 290 nM
- Cc1cc(=O)[nH]c(-n2nc(C)cc2NC(=O)C(c2ccccc2)c2ccccc2)n1 — 3.8-fold higher, 840 nM
- Cc1ccc(C(=O)Cn2nc(-c3ccc(C)c(S(=O)(=O)N4CCCC4)c3)ccc2=O)cc1 — 2.3-fold higher, 510 nM
- NC(=O)c1ccc(NCC(=O)Nc2cccc(-c3cccc(-c4nc5ccccc5[nH]4)c3)c2)cc1 — 4.5-fold higher, 990 nM
- COc1ccccc1CCNc1nc(C)cc(N[C@@H](Cc2ccccc2)C(=O)NCc2cccs2)n1 — 2.9-fold higher, 630 nM
- O=C(O)/C=C/c1cccc(F)c1F — 2.2-fold lower, 100 nM
- CC(O)C1CCCCN1C(=O)c1cccc(-c2ccc(-c3nc4ccc(F)cc4[nH]3)cc2)c1 (stereo not given) — 3.4-fold higher, 740 nM
- OC(CNCc1cccc(Oc2ccc(Cl)cc2)c1)c1cc(C(F)(F)F)cc(C(F)(F)F)c1 (stereo not given) — within 1.5-fold, 260 nM
- Oc1ccc2nc(NCCCc3ccccc3)nc(NCCc3ccccc3)c2c1 — within 1.5-fold, 290 nM
- CC(=O)c1cccc(Nc2nc3c(C#N)c(OCc4cc(Cl)cc(Cl)c4)ccc3[nH]2)c1 — 4-fold higher, 870 nM
- CCC[C@@H]([C@@H](CC1CCCCC1)C(=O)N[C@H](C(=O)Nc1nccs1)C(C)(C)SCCOCCOCC)N(O)C=O — 2.8-fold lower, 80 nM
- Nc1cc(C=Cc2ccc(O)cc2)nc2ccccc12 — 4.5-fold higher, 990 nM
- O=[N+]([O-])c1ccc(Nc2nc(NN=Cc3ccc(-c4ccc([N+](=O)[O-])cc4)o3)nc(Nc3ccccc3)n2)cc1 — 2.9-fold higher, 640 nM
- Cc1sc(C)c(C(F)(F)F)c1CNCCCNc1cc(=O)c2ccccc2[nH]1 — 5-fold higher, 1100 nM
- Cc1ccc(/C=C/C(=O)NC2CCC(N3CCC(c4ccccc4C)CC3)CC2)cc1F (stereo not given) — 4.7-fold higher, 1040 nM
- CCCCc1ccc2nc(NC(=O)OC)[nH]c2c1 — 3.1-fold higher, 680 nM
- COc1ccc(NC(=O)[C@H](Cc2ccccc2)Nc2cc(C)nc(Nc3ccccc3)n2)cc1 — 4.6-fold higher, 1010 nM
- Nc1nc2c(cnn2CCCCCCCP(=O)(O)O)c(=O)[nH]1 — 2.1-fold higher, 470 nM
- O=C(C=Cc1cccs1)N(CCCn1ccnc1)c1nc2ccc(F)cc2s1 — 7.3-fold higher, 1600 nM
- CC(=O)Oc1c(C2C=CCCC2)c(OC(C)=O)c2ccccc2c1OC(C)=O (stereo not given) — 2.7-fold higher, 600 nM
- Cc1cc(C)n2nc(C(=O)Nc3cc(C(F)(F)F)ccc3N3CCOCC3)nc2n1 — 1.8-fold lower, 120 nM
- CC(=O)c1ccc(NC(=O)NNC(=O)c2ccc(CCN3CCC(c4nc(COCC(F)(F)F)c(-c5ccc(F)cc5)o4)CC3)cc2)cc1 — 3.8-fold higher, 830 nM
- Cc1cc(-c2nc3cncc(-c4cccc(CN5CCCC5Cc5cccnc5)c4)c3n2C)nn1C (stereo not given) — 1.7-fold lower, 130 nM
- O=C(Nc1ccnc(-c2cccnc2)n1)c1cc(C(F)(F)F)cc(C(F)(F)F)c1 — 3.7-fold higher, 820 nM
- CC(C)NC(=O)c1cccc(-c2ccc(OCCN3CCCC3c3cc4ccccc4[nH]3)cc2)c1 (stereo not given) — 4.4-fold higher, 960 nM
- Nc1nc2cccc3ccc4cccc1c4c32 — 4.2-fold higher, 920 nM
- COc1ccc2nccc([C@@H](O)CN3CCC(NCc4ccc5c(c4)NC(=O)C(C)(C)O5)CC3)c2c1 — 1.8-fold higher, 400 nM
- COc1ccc2nccc(NN=Cc3ccc(N(C)C)cc3)c2c1 — 3.6-fold higher, 800 nM
- CN(C)CC(O)C(c1ccccc1)c1cccc(Br)c1 (stereo not given) — within 1.5-fold, 160 nM
- NOCCCOc1ccc(Cl)cc1 — 2.6-fold higher, 570 nM
- CCOC(=O)C(CO)NC(=O)c1ccc([N+](=O)[O-])o1 (stereo not given) — within 1.5-fold, 290 nM
- COc1ccc(-c2cccc(NC(=O)c3ccccc3)c2)cc1CN1CCCN(C)CC1 — 3.3-fold higher, 730 nM
- Cc1cccc2c(N=NC(=S)N(C)C)c(O)[nH]c12 — 3.4-fold higher, 750 nM
- Clc1ccc(CNCCCCCCCNCc2ccc(Cl)c(Cl)c2)cc1Cl — 1.7-fold higher, 370 nM
- CCN(CC)CCOc1ccc(NC(=O)c2oc3ccccc3c2C=Cc2ccccc2)cc1 — the same, 220 nM
- CCc1cn2c3c(cc(C(=O)N[C@@H](Cc4ccccc4)[C@H](O)CNCc4ccccc4)cc13)N(C)S(=O)(=O)CC2 — 3-fold higher, 660 nM
- CC(=O)c1cccc2cc(C(=O)NC3CCC(CCN4CCc5ccc(C#N)cc5C4)CC3)[nH]c12 (stereo not given) — 3.6-fold higher, 790 nM
- CC(C)OC(=O)c1ccccc1S(N)(=O)=O — 3-fold higher, 670 nM
- COc1c(Br)cc(Br)cc1-c1ccc(CN2CC3CCC2CC3)[nH]1 — 3.1-fold higher, 690 nM
- CC1CCCN(c2ccc(NC(=O)c3cccs3)cc2[N+](=O)[O-])C1 (stereo not given) — 3-fold higher, 670 nM
- Cc1ccc(O)c(C(=O)c2cnc3c(c2)c(-c2ccc(F)cc2)c(C#N)c(=O)n3C)c1 — 4.4-fold higher, 970 nM
- O=C(Nc1cccc(-c2cc(-c3c(Cl)cccc3Cl)no2)c1)c1cncc(-c2cccs2)c1 — 4.3-fold higher, 950 nM
- Cc1ccccc1CCNC(=O)c1cnc(N2CCN(c3ccncc3)CC2)c(Cl)c1 — 4.8-fold higher, 1060 nM
- Fc1ccc(C=NNc2ccnc3ccc(C(F)(F)F)cc23)cc1 — 5-fold higher, 1100 nM
- O=C(c1ccc([N+](=O)[O-])o1)N1CCC(Cc2ccc(C(F)(F)F)cc2)CC1 — within 1.5-fold, 170 nM
- COc1ccc(CN2CCC(NCc3cccc(-n4ccnc4)c3)CC2)cc1 — 2.9-fold higher, 630 nM
- O=C(Nc1nccs1)c1cn(-c2ccccc2)nc1-c1ccc(Cl)s1 — 4.4-fold higher, 970 nM
- COc1cc(C(=O)N2CCN(C(C)C)CC2)ccc1CN(C)CCCN1CCN(c2cccc(Cl)c2Cl)CC1 — 3.5-fold higher, 780 nM
- COc1cccc(-c2csc(C(=O)NCC3CCN(Cc4ccc(C(C)C)cc4)C3)c2)c1 (stereo not given) — 6.3-fold higher, 1390 nM
- CCCCn1c(=N)c(C(=O)NCc2cccnc2)cc2c(=O)n3cccc(C)c3nc21 — 3.4-fold higher, 740 nM
- CCNc1cc(C(=O)N[C@@H](Cc2ccccc2)[C@H](O)CNC(C)(C)CCCC(C)C)cc(N2CCCCS2(=O)=O)c1 — 2-fold higher, 450 nM
- COc1cccc(NC(=O)Nc2ccc(Nc3nc(C)cc(N(C)C)n3)cc2)c1 — within 1.5-fold, 170 nM
- O=C1Nc2cccc3c2C1(CCCN1CCC(c2c[nH]c4cc(C(F)(F)F)ccc24)CC1)CCC3 (stereo not given) — 4.4-fold higher, 960 nM
- Cc1[nH]c(C)c([N+](=O)[O-])c(=O)c1-c1ccc(Oc2ccc(OC(F)(F)F)cc2)cc1 — within 1.5-fold, 250 nM
- c1ccc(CCNc2ccnc(Nc3ccc4cn[nH]c4c3)n2)cc1 — 2.1-fold higher, 470 nM
- O=C(c1cccs1)N(Cc1cccc(-c2ccc(CNC3CCCC3)cc2)c1)C1CCN(Cc2ccccc2)CC1 — 5.1-fold higher, 1130 nM
- N#Cc1cccc(C(=O)NC2CCN(c3ccnc(Nc4ccc(F)cc4)n3)C2)c1 (stereo not given) — 1.8-fold higher, 400 nM
- COc1ccc(C2CC(=O)C3=C(C2)NC(C)=C(C(=O)OC2CCCC2)C3c2ccc(O)cc2)cc1OC (stereo not given) — 2.6-fold higher, 570 nM
- CCn1c(SCc2ccc(F)cc2)nc2sc3c(c2c1=O)CCN(C)C3 — within 1.5-fold, 250 nM
- O=C(NCCN1CCCC1)c1ccc(-c2ccc(-c3nc4ccccc4[nH]3)s2)cc1 — 4.3-fold higher, 940 nM
- O=[N+]([O-])c1cccc(-c2ccc(C=NNc3cc(N4CCCC4)nc(N4CCCC4)n3)o2)c1 — 3.2-fold higher, 710 nM
- COc1cccc(-c2cc(C(=O)Nc3cc(Oc4ccc(O)cc4)cc([N+](=O)[O-])c3)on2)c1 — 4.8-fold higher, 1050 nM
- COc1ccc(CNc2ccnc3cc(OC)ccc23)cc1 — 3.5-fold higher, 770 nM
- COc1cccc(C(=O)Nc2ccc(Nc3nc(C)cc(N(C)C)n3)cc2)c1 — 4.3-fold higher, 940 nM
- O=C(NC1CC1)c1ccc(N2CCC(Oc3ccc(F)cc3)CC2)nc1 — 5-fold higher, 1090 nM
- O=C(Nc1cccc(-c2ccc(-c3nc4ccc(C(F)(F)F)cc4[nH]3)cc2)c1)Nc1ccc(Cl)c(Cl)c1 — 4-fold higher, 890 nM
- CC(C)(C)c1ccc(NC(=O)c2ccc(CN3CCCN(Cc4cccc(F)c4)CC3)cc2)cc1 — 5.1-fold higher, 1120 nM
- NC1CCN(Cc2cccc(-c3ccc(-c4nc5ccc(C(F)(F)F)cc5[nH]4)cc3)c2)C1 (stereo not given) — 3.2-fold higher, 700 nM
- Cc1ccc2nc(-c3cc(-c4ccc(OCc5ccccc5)cc4)cnc3N)[nH]c2c1 — 7.6-fold higher, 1680 nM
- Cc1csc(-c2ncc(OC[C@@H](N)Cc3ccccc3)cc2-c2ccc3n[nH]c(C)c3c2)c1 — 3.8-fold higher, 840 nM
- COc1ccc(S(=O)(=O)Nc2ccc(C(=O)NCc3ccccc3C(F)(F)F)cc2)cc1N1CCN(CC2CC2)CC1 — 5.2-fold higher, 1150 nM
- COc1ccc(-c2ccc(NC(=O)c3ccc(C#N)cc3)cc2)cc1CN1CCNCC1 — 2.3-fold higher, 510 nM
- O=C(Nc1ccc(Br)cc1)Nc1ccc(Cn2ncc(N3CCCNCC3)c(Cl)c2=O)cc1 — 5.2-fold higher, 1140 nM
- O=C(c1ccc([N+](=O)[O-])o1)N1CCC(c2cn(Cc3cccc(F)c3)c3ccccc23)CC1 — 2.9-fold higher, 640 nM
- Brc1ccc(Nc2nc(NCc3ccccc3)c3ccccc3n2)cc1 — 1.5-fold higher, 340 nM
- NC(=O)c1ccc(C(=O)Nc2cccc(-c3ccc(-c4nc5ccc(C(F)(F)F)cc5[nH]4)cc3)c2)cc1 — 2.3-fold higher, 510 nM
